How the values were obtained:
[1] = Procedure: The experiment was carried out using standard glass diffusion cells which consist of a donor compartment with a 7.5 ml capacity, and a receptor compartment with a 22 ml capacity. A circular piece of epidermis was placed in each diffusion cell (permeation area=2.27 cm^2) in a horizontal position between a lower capped receptor compartment and an upper capped donor compartment. The receptor compartment has both a venting tube (uncapped) and a sampling port (capped). The stratum corneum side of the epidermis faced the donor compartment. An O-ring was positioned between the epidermis and the donor compartment, and a clamp held the compartments together. The receptor solution, 22 ml of 0.001 M phosphoric acid solution, pH 3.2, was added to each receptor compartment. The cells were placed in a temperature controlled water bath shaker at 35° C. and allowed to come to temperature before the donor solution was added.
At each time interval, the receptor solution was removed from the test cell and replaced with an equal volume of fresh receptor solution previously equilibrated at 35° C. […] From the drug concentration and the volume of the receptor solutions, the area of permeation and the time interval, the flux of the drug through the epidermis was calculated as follows: (drug concentration×volume of receptor)/(area×time)=flux (μg/cm^2·hr).
Transdermal fluxes were obtained using human epidermis at 35° C. in standard diffusion cells using the procedure set forth in Example 1. FIG. 6 graphically depicts the results.
Transdermal fluxes were obtained using human epidermis at 35° C. in standard diffusion cells using the procedure set forth in Example 1.

[2] = system: skin; assay: skin irritation on transdermal administration (inventors' finding); assay type: in vivo
Source text: According to this preferred embodiment, a pharmaceutically acceptable salt of fluoxetine is coadministered with an anti-irritant, preferably a corticosteroid such as hydrocortisone.
Other salts which provide the necessary flux and irritation levels can be determined in accordance with the principles of the teachings of this invention.

[3] = administered orally as fluoxetine hydrochloride (Prozac), 10 mg or 20 mg daily doses, cited from earlier work

| effect of methyl laurate by itself on fluoxetine flux ([1]; 10% fluoxetine base in oil/petrolatum with 0-10% methyl laurate, FIG. 6) | increase of fluoxetine flux by addition of GML ([1]; 10% fluoxetine base in oil/petrolatum with 2.5-10% GML, FIG. 5) | effect of the combination of methyl laurate and GML on fluoxetine flux ([1]; 10% fluoxetine base in oil/petrolatum with 5% methyl laurate and 0-10% GML, FIG. 7, compared with GML or methyl laurate individually) | Compound | skin irritation when administered transdermally ([2]; in vivo) | elimination half-life, averaging ([3]; average) [h] | elimination half-life [3] [h] | skin irritation when administered transdermally ([2]; transdermal administration, base or salt form as labelled) |
| --- | --- | --- | --- | --- | --- | --- | --- |
| did not significantly increase | two to five fold | synergistic effect | CNCCC(Oc1ccc(C(F)(F)F)cc1)c1ccccc1 (racemic) [fluoxetine, (±)-N-methyl-γ-[4-(trifluoromethyl)-phenoxy] benzenepropanamine] | moderately to severely irritating | 48 to 72 | 24 to 220 | – |
| – | – | – | fluoxetine acetate | – | – | – | reduced irritation levels |
